Values after ≈ are worked out from the molar mass of the structure shown. “Also recorded” adds a separate entry of the source. Like-named read-outs stand apart in the source and are kept apart here.
What was measured:
[1] = biological target: T1, HBV DNA polymerase (Hepatitis B virus genotype D subtype ayw, UniProt P03156); test: HBV DNA polymerase assay; type: biochemical
T1 construct: HBV DNA polymerase in viral particles; host or cells: viral particles
Experimental: Assay was performed as described by Hantz (Antiviral Res 4(1984) 187-199) with minor modification. The Reaction mixture consisted of HBV DNA polymerase in viral particles in 200 mmol.l^-1 of Tris-HCl pH 7.6, 200 mmol.l^-1 of NH4 Cl. 50 mmol.l^-1 of MgCl2, 10 mmol.l^-1 of 2-mercaptoethanol, 2% Nonidet P-40 and 300 μmol.l^-1 concentrations of deoxynucleotide triphosphates except for [^3 H]dTTP, which was included in the assay at 20 μci.ml^-1. […] The mixtures were incubated at 37° C. for 4 h prior to spotting on Whatman No.3 filter paper which was washed 4 times with cold 5% trichloroacitic acid, then with ethanol. The HBV DNA polymerase activity as measure of the incorperation of the radionucleotide into the viral DNA was counted in a Recbeta (LKB)scintilation counter.

[2] = tested on: 2.2.15 cells; test: Cytotoxicity in 2.2.15 cells (MTT); type: cell-based
Experimental: (§1) The cultures were passenged by trypsinization every 4 days.
(§2) The viability of cells was determined by MTT.

[3] = tested on: Hep G2 cell lines; test: Cytotoxicity in Hep G2 cell lines; type: cell-based; conditions: 1.0 μg.ml^-1
Experimental: as §2

[4] = tested on: HBeAg; test: microbe, parasite or virus in culture; type: cell-based, HBV; conditions: Hepatitis B virus; for inhibition at 7.81 µg/mL / inhibition at 15.63 µg/mL / inhibition at 31.25 µg/mL / inhibition at 62.5 µg/mL / inhibition at 125 µg/mL / inhibition at 250 µg/mL: read-out: HBeAg Inhibit rate (%)
Experimental: as §1
(§3) HBsAg and HBeAg in the culture medium were determined according to the protocol respectively. The culture medium (200 μl) was absorbed on beads containing antibody to HBsAg/HBeAg in the presence of the conjugate. After overnight incubation, the beads were washed 6 times with […] PBS containing 0.05% Tween-80 and incubated with 200 μl of [^125 I] anti-HBs(Hbe) overnight. The beads were washed 6 times as above. The amounts HBsAg/HBeAg as measure of cpm of [^125 I] labeled immunocomplex was counted on γ-counter.

[5] = tested on: HBsAg; test: microbe, parasite or virus in culture; type: cell-based, HBV; conditions: Hepatitis B virus; for inhibition at 7.81 µg/mL / inhibition at 15.63 µg/mL / inhibition at 31.25 µg/mL / inhibition at 62.5 µg/mL / inhibition at 125 µg/mL / inhibition at 250 µg/mL: read-out: HBsAg Inhibit rate (%)
Experimental: as §1, §3

[6] = Tolerance and general health in ducks; conditions: duck, in vivo; preliminary results; read-out: maximal tolerance dose in duck
[7] = tested on: MT4 cells; test: Cytotoxicity in uninfected MT4 cells (MTT); type: cell-based, human; conditions: 1000 μg.ml^-1, MTT
Experimental: A human T-cell leukemia cell line. MT4 cells, was used in this study. It was maintained in RPMI-1640 medium supplemented with 10% FCS. 100 U/ml of penicillin, and 100 μg/ml of streptomycin at 37° C. in a humidified atmosphere of 5% CO2. Cell cultures were split into fresh medium every 4 days.
After 4 h, 100 μl of solvent (10% Triton X-100 and 0.4% HCl isopropanol)was added to cultures to solubilizes formazan. After an overnight incubation, the absorbency of each well was measured using a microplate reader (Bio-Rad, model 450) at 560 nm.

[8] = tested on: lymphocyte proliferation induced by Con A; conditions: mice infected with MuLV
Experimental: mice. Five-wk-old female C57BL/6 mice were used throughout the experiments. All mice were housed in sterile cages in a room supplied with filtrated air. They were given pelleted food and chlorinated water ad libitum.
Infection with LP-BM5 MuLV. Cell-free supernatants of LP-BM5 MULV were prepared by cocultivating G6 SC-1 clones with normal SC-1 cells for 5 days. Mice were inoculated intraperitoneally with 150 μl of stock solution containing 10^3,4×C plaque-forming units and 10^2,3 Mink-cell focks-forming units per […].
Then, the spleens were collected. Cell suspensions were prepared by repeated passage of whole spleen through a pipette, the capsule and debris were allowed to settle, and the supernatants containing cells were collected and washed twice in PBS. […] Incubation continued for 16 hr, then cells were collected on filter that was determined by a scintillation counter.

[9] = tested on: HBV DNA replication; conditions: FIG. 1; 15.625-250 ug/ml
Experimental: Hep G2 2.2.15 cell lines were maintained in DMEM supplemented with 10% fetal calf serum (FCS) and 100 units.ml^-1 of penicillin and streptomycin, 380 μg.ml^-1 of G418 in a humidified atmosphere containing 5% CO2 at 37° C. The cultures were passenged by trypsinization every 4 days. For bioassays cells were plated in 24-well plates at a density of 1.0×10^5 cells/well. Two-day-old cultures were treated with various concentrations of drug in DMEM containing 10 FCS. The drug was left in the medium for 4 days, and then the medium was aspirated and the fresh medium containing the same concentration of drug was added. At the end of three 4-day periods, the cells were harvested. The aliquot of the culture medium was used for the estimation of the HBV surface antigen (HBsAg) and HBV e antigen (HBeAg).
DNA extraction in 2.2.15 cells: Total DNA was isolated from 2.2.15 cells, cells was washed in PBS and lysed in a solution containing 50 mmol.l^-1 Tris-HCl (pH 7.5). 10 mmol.l^-1 EDTA. 1% SDS and 50 μg.ml^-1 of proteinase K (Sigma). After incubation at 37° C. for 4 h, total DNA was extracted in phenol-chloroform-isoamyl alcohol (25:24:1) followed by two extractions with chloroform-isoamyl alcohol. The DNA was precipitated with 1/10 vol NaOAc and 2.5 vol ethanol overnight at -70° C. […]

T1 sequence (P03156 whole entry): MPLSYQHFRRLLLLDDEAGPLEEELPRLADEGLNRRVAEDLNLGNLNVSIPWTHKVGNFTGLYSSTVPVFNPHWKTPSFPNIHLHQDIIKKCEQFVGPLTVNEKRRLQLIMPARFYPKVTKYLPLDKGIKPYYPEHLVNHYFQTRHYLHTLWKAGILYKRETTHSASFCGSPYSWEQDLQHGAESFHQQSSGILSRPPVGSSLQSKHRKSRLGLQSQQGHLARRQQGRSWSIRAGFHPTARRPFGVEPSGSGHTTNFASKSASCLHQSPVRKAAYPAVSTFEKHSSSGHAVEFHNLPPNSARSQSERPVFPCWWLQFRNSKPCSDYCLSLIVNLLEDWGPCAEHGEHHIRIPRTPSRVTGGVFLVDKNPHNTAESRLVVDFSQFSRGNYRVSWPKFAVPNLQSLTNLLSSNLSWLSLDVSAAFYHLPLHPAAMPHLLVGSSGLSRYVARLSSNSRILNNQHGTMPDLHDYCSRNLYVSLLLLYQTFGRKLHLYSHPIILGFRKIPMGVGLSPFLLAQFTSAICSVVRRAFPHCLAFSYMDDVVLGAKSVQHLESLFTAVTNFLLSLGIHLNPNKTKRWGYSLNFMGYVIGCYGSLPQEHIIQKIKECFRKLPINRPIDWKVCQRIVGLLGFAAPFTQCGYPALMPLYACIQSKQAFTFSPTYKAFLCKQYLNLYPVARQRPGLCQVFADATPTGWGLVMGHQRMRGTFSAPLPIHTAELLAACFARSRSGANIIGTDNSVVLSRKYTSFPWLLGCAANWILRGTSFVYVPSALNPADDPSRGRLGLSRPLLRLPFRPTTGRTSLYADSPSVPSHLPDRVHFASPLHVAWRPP

O=C(/C=C/c1ccc(O)c(O)c1)OC1CC(OC(=O)/C=C/c2ccc(O)c(O)c2)(C(=O)O)CC(O)C1O (centres unmarked) [Compound A, 1,5-di-O-caffeoylquinic acid]
IC50 [1]: 59.3 µM
inhibitory effect on HBV DNAp [1]: significant dose-dependent inhibitory effect
cpm ([1]; 1 μg/ml): 9856 ± 201 cpm
cpm ([1]; 10 μg/ml): 7990 ± 79 cpm
cpm ([1]; 100 μg/ml): 3522 ± 51 cpm
cpm ([1]; 1000 μg/ml): 1983 ± 159 cpm
inhibition at 1 µg/mL ([1]; read-out: Inhibitory rate (%)): 11.2 ± 1.9%
inhibition at 10 µg/mL ([1]; read-out: Inhibitory rate (%)): 30.3 ± 0.8%
inhibition at 100 µg/mL ([1]; read-out: Inhibitory rate (%)): 68.4 ± 0.5%
inhibition at 1000 µg/mL ([1]; read-out: Inhibitory rate (%)): 82.3 ± 1.5%
toxicity to 2.2.15 cells ([2]; 1.0 μg.ml^-1): did not show toxicity
harmful effects on 2.2.15 cells ([2]; 500 μg/ml): no obvious harmful effects
toxicity to Hep G2 cell lines [3]: did not show toxicity
inhibition at 7.81 µg/mL ([4]; 96 h): 8.94 ± 4.29%
inhibition at 15.63 µg/mL ([4]; 96 h): 19.1 ± 3.89%
inhibition at 31.25 µg/mL ([4]; 96 h): 34.5 ± 6.66%
inhibition at 62.5 µg/mL ([4]; 96 h): 41 ± 3.68%
inhibition at 125 µg/mL ([4]; 96 h): 47.4 ± 1.09%
inhibition at 250 µg/mL ([4]; 96 h): 64.2 ± 2.03%
inhibition at 7.81 µg/mL ([4]; 288 h): 15.9 ± 2.4%
inhibition at 15.63 µg/mL ([4]; 288 h): 27.8 ± 2.23%
inhibition at 31.25 µg/mL ([4]; 288 h): 30.5 ± 3.55%
inhibition at 62.5 µg/mL ([4]; 288 h): 47.3 ± 0.81%
inhibition at 125 µg/mL ([4]; 288 h): 54.5 ± 1.01%
inhibition at 250 µg/mL ([4]; 288 h): 66.5 ± 0.9%
inhibition at 7.81 µg/mL ([4]; […]): 10.4 ± 2.05%
inhibition at 15.63 µg/mL ([4]; […]): 31.7 ± 7.1%
inhibition at 31.25 µg/mL ([4]; […]): 41.8 ± 2.47%
inhibition at 62.5 µg/mL ([4]; […]): 45.2 ± 2.47%
inhibition at 125 µg/mL ([4]; […]): 52.5 ± 1.89%
inhibition at 250 µg/mL ([4]; […]): 64.7 ± 2.28%
IC50 ([4]; read-out: IC50, production of HBeAg): 21 to 78 µg/mL (≈ 40.7 to 151 µM)
inhibition at 7.81 µg/mL ([5]; 96 h): 17.2%
inhibition at 15.63 µg/mL ([5]; 96 h): 26%
inhibition at 31.25 µg/mL ([5]; 96 h): 37.2 ± 2.86%
inhibition at 62.5 µg/mL ([5]; 96 h): 47.5 ± 1.17%
inhibition at 125 µg/mL ([5]; 96 h): 57%
inhibition at 250 µg/mL ([5]; 96 h): 62.3 ± 2.22%
inhibition at 7.81 µg/mL ([5]; 288 h): 24.2 ± 4.63%
inhibition at 15.63 µg/mL ([5]; 288 h): 31.4 ± 3.2%
inhibition at 31.25 µg/mL ([5]; 288 h): 36.1%
inhibition at 62.5 µg/mL ([5]; 288 h): 50.1 ± 1.28%
inhibition at 125 µg/mL ([5]; 288 h): 58.3%
inhibition at 250 µg/mL ([5]; 288 h): 66.6%
inhibition at 7.81 µg/mL ([5]; […]): 18.5%
inhibition at 15.63 µg/mL ([5]; […]): 27.6%
inhibition at 31.25 µg/mL ([5]; […]): 35.8 ± 1.9%
inhibition at 62.5 µg/mL ([5]; […]): 46.7 ± 2.03%
inhibition at 125 µg/mL ([5]; […]): 55 ± 2.08%
inhibition at 250 µg/mL ([5]; […]): 68.8 ± 4.68%
IC50 ([5]; read-out: IC50, production of HBsAg): 21 to 165 µg/mL (≈ 40.7 to 319 µM)
IC50 ([5]; read-out: IC50 for inhibition of production of HBsAg): 21 to 165 µg/mL (≈ 40.7 to 319 µM)
MTD [6]: > 4000 mg/kg
cytotoxicity to MT4 cells [7]: markedly cytotoxic
proliferation of lymphocyte induced by Con A [8]: enhance the proliferation of lymphocyte induced by Con A in a degree near to that of AZT; also recorded: enhance the proliferation of lymphocyte of mice infected with MuLV
inhibition of HBV DNA replication [9]: inhibit HBV DNA replication in a dose dependent manner
